System: purulent wound infected with Staphylococcus aureus
Test: Purulent skin-facial wound model infected with Staphylococcus aureus, topical treatment
Type: in vivo, Chinchilla rabbits
Description: The effect of topical administration of a fermented milk product prepared as described above was studied using 24 Chinchilla rabbits. Standard skin-facial wounds of about 2×2.5 cm (500 sq. mm) in size were inflicted in the back area of all the rabbits; a skin graft was dissected with subcutaneous fat and fascia up to a muscular layer, wound edges containing subcutaneous muscle were crushed with Kocher's forceps. Following hemeostasis, rabbits were infected by introducing 1 ml microbial suspension containing 1.5×10^9 Staphylococcus aureus into the wound.
All animals were divided into three groups each containing eight rabbits. In group I (test), the animals were treated with the fermented milk. For comparison, rabbits of Group II were treated with Rivanol (Chinosolfabrik, Germany). Group III consisted of control, untreated animals. Treatment was initiated on the third day postinfection. The fermented milk preparations were applied locally using liberally wetted, loosely placed napkins onto the wound followed by application of an aseptic dressing. Animals of the control group were maintained under identical conditions, and were subjected to daily wound sanitation and application of aseptic dressings.
The clinical course of wound healing was controlled based on a number of criteria—nature and amount of the discharge, terms for arresting a perifocal inflammatory reaction, necrolysis terms, emergence of granulations, epithelization, terms of a wound healing. At the same time, the surface area of the wound was measured; cytological, morphological studies of the wound edge and bottom were carried out; and bacteriological studies of wound discharge (prior and during the treatment) were performed. To determine the presence of microbes in sections, the preparations were Gram-Weigart stained. Bacteriological studies were carried out with regard to a rate and duration of Staphylococcus dissemination from a destruction focus. The following quantitative characteristics of dissemination were used: up to 25 colonies on a Petri dish=limited growth; up to 70 colonies=poor growth; up to 200 colonies=abundant growth; and more than 200 colonies=complete growth.
Material from a purulent wound was removed with a calcined and quenched standard loop, 3 mm in diameter, emulsified in 1 ml saline and then plated by 0.05 ml onto Petri dishes of plain agar. The plated material was placed in an incubator at 37° C. for 18-20 hours followed by Staphylococcus aureus colony count.

[1] = local application, treatment from third day postinfection

With `CCOc1ccc2nc3cc(N)ccc3c(N)c2c1` [Rivanol] the “Edge epithelization advent” value [1] was 15.1 days, the “Full wound filling with granules” value [1] was 18.9 days and the “Full wound healing” value [1] was 24.7 days. For the same compound, the “First granulation advent” value (local application, treatment from third day postinfection, 8 rabbits per group) was 7.0 days, the “Full wound healing, days (first column of that name)” value (local application, treatment from third day postinfection, column after first granulation advent) was 13.5 days and the “Nature of the cicatrix” value (study of cicatrices after healing) was “a more coarse cicatricial tissue prevailed”.
